Tests used:
[1] = test system: experimentally provoked fever; assay: Antipyretic activity (experimentally provoked fever); assay type: in vivo; set-up: unit not given here; conditions: 25 mg./kg. p.o.
Text: Besides their antiphlogistic activities, some of the benzo(a)quinolizidine derivatives exert antipyretic effects as well. On the basis of the tests performed on experimentally provoked fever, the antipyretic activities of the compounds according to the invention surpass the effect of amidazophenum.

Acute toxicity tests = assay type: in vivo; conditions: rat, in vivo, po; rats, Litchfield-Wildoxon method
Description: The acute toxicity values of the compounds were determined on rats, after oral administration. The LD50 values were calculated according to the Litchfield-Wildoxon method.

central nervious system = assay: Narcosis potentiating effect; assay type: in vivo
kaolin-induced oedema = assay: Inhibition of kaolin-induced oedema; assay type: in vivo; conditions: 2 hours
Description: (§1) Inhibition of Kaolin- and carrageenin-induced oedema
(§2) The tests were carried out on groups each consisting of at least 10 animals. The percentage inhibition of oedema, in relation to the untreated controls, was determined for each of the animals, and the average values were calculated.

[2] = test system: carrageenin-induced oedema; assay: Inhibition of carrageenin-induced oedema; assay type: in vivo; conditions: 1.5 hours
Description: as §1, §2

Cotton granuloma = Cotton granuloma test; assay type: in vivo; conditions: 100 mg./kg.
[3] = Determination of ulcer index
[4] = Inhibition of kaolin-induced oedema; assay type: in vivo; conditions: in vivo; LD50/ED50; read-out: Therapeutical index LD50/ED50, kaolin-oedema
Description: as §1, §2

[5] = Inhibition of carrageenin-induced oedema; assay type: in vivo; conditions: in vivo; LD50/ED50; read-out: Therapeutical index LD50/ED50, carrageenin-oedema
Description: as §1, §2

[6] = test system: serotonine-induced oedema; assay: Tests performed on serotonine-induced oedema; assay type: in vivo
Description: Tests performed on serotonine-induced oedema
The tests were carried out on groups each consisting of 10 animals. The percentage inhibition of oedema, in relation to the untreated controls, was determined for each of the animals. The data listed in Table 3 are the averages of the inhibition values.

[7] = Analgesic effect by the hot-plate test; assay type: in vivo; conditions: 50 mg./kg. p.o.

SMILES	LD50 (Acute toxicity tests) [mg/kg]	Inhibition of kaolin-induced oedema 2 hours after administration (kaolin-induced oedema; 100 mg./kg. p.o.) [%]	Inhibition of carrageenin-induced oedema 1.5 hours after administration ([2]; 100 mg./kg. p.o.) [%]	Erosion ([3]; female)	Ulcer ([3]; female)	Erosion ([3]; male)	Ulcer ([3]; male)	Inhibition of kaolin-induced oedema 2 hours after administration (kaolin-induced oedema; 25 mg./kg. p.o.) [%]	Inhibition of kaolin-induced oedema 2 hours after administration (kaolin-induced oedema; 50 mg./kg. p.o.) [%]	Inhibition of kaolin-induced oedema 2 hours after administration (kaolin-induced oedema; 75 mg./kg. p.o.) [%]	Inhibition of carrageenin-induced oedema 1.5 hours after administration ([2]; 50 mg./kg. p.o.) [%]	Percentage inhibition 1 hour after administration (serotonine-induced oedema) ([6]; 100 mg./kg. p.o.) [%]	Prolongation of the sleep period in relation to the untreated controls, % (central nervious system; 50 mg./kg. p.o.) [%]	further results
Cc1c(N(C)C)c(=O)n(-c2ccccc2)n1C [Amidazophenum]	–	–	–	–	–	–	–	–	–	–	–	–	–	Variation of body temperature ([1]; 1 hour after administration): -1.17; Variation of body temperature ([1]; 2 hours after administration): -0.94; Variation of body temperature ([1]; 3 hours after administration): -0.95
CC(=O)Oc1ccccc1C(=O)O [Aspirin, reference compound]	1700	–	–	–	–	–	–	–	–	–	–	–	–	–
CCCC(C)(COC(N)=O)COC(N)=O [Meprobamate, reference compound]	–	–	–	–	–	–	–	–	–	–	–	–	–	Prolongation of the sleep period in relation to the untreated controls, % (central nervious system; 20 mg./kg. p.o.): 110.2%
O=C(O)c1ccccc1O [Na-salicylate, reference compound]	–	10.5	16.2	3/10	2/10	1/10	4/10	–	–	–	–	–	–	Effect, % (cotton granuloma test) (Cotton granuloma): 25.5%
COc1cc2c(cc1OC)C1CC(=O)C(CCC#N)CN1CC2 (stereo not drawn) [SCT-1, 2-Oxo-3-(β-cyano-ethyl)-9,10-dimethoxy-1,2,3,4,6,7-hexahydro-11bH-benzo(a)quinolizidine]	620	47.8	37.7	4/10	2/10	3/10	1/10	20.5	21.4	24.8	24.2	57.8	207.6	selectivity ratio [4]: 12.4; selectivity ratio [5]: 6.7; Inhibition of carrageenin-induced oedema 1.5 hours after administration ([2]; 75 mg./kg. p.o.): 25.7%; Percentage inhibition 1 hour after administration (serotonine-induced oedema) ([6]; 50 mg./kg. p.o.): 22.4%; Prolongation of the sleep period in relation to the untreated controls, % (central nervious system; 25 mg./kg. p.o.): 132.8%
COC(=O)CCC1CN2CCc3cc(OC)c(OC)cc3C2CC1=O (stereo not drawn) [SCT-2, 2-Oxo-3-(β-methoxycarbonyl-ethyl)-9,10-dimethoxy-1,2,3,4,6,7-hexahydro-11bH-benzo(a)quinolizidine]	–	–	17.0	–	–	–	–	5.8	21.4	24.7	14.3	16.0	28.3	Inhibition of carrageenin-induced oedema 1.5 hours after administration ([2]; 75 mg./kg. p.o.): 2.8%; Prolongation of the reaction time, % (2 hours after administration) [7]: 26.4%
CCOc1cc2c(cc1OCC)C1CC(=O)C(CCC#N)CN1CC2 (stereo not drawn) [SCT-3, 2-Oxo-3-(β-cyano-ethyl)-9,10-diethoxy-1,2,3,4,6,7-hexahydro-11bH-benzo(a)quinolizidine]	780	45.9	53.7	4/10	0/10	6/10	1/10	17.3	19.4	48.9	41.5	47.0	240.2	selectivity ratio [4]: 15; selectivity ratio [5]: 19.8; Inhibition of carrageenin-induced oedema 1.5 hours after administration ([2]; 25 mg./kg. p.o.): 25.1%; Percentage inhibition 1 hour after administration (serotonine-induced oedema) ([6]; 50 mg./kg. p.o.): 36.2%; Prolongation of the reaction time, % (2 hours after administration) [7]: 33.9%; Prolongation of the sleep period in relation to the untreated controls, % (central nervious system; 25 mg./kg. p.o.): 131.7%

Reference: US4102886A, “Process for the preparation of benzo(a)quinolizidine derivatives” (priority 1974, dated 1978)
